One experiment concerns the target FLT3 kinase (Homo sapiens (Human), UniProt P36888). Description: FLT3 kinase assay (radiometric). In kind it is biochemical. The note with it: bound. As to the method:
(§1) Inhibition of FLT3 kinase activity by a test compound disclosed herein was estimated by radiometric assay. Standard assay conditions were 5 ng of recombinant FLT3 (Thermo Fisher) with 2 μg of substrate Poly-(Glu 4:Tyr 1) (sigma) in the assay buffer in kinase reaction buffer (10 mM MOPS pH 7.0, 0.21 mM EDTA, 0.5% glycerol, 0.001% Brij-35, 0.01 2-mercaptoehtanol, 1 mg/ml BSA, MgCl2 10 mM, 10 μM ATP, 0.1 μCi per well [^33P]-ATP, in the presence of test compound (diluted in final concentration of 4% DMSO) or DMSO control, with a final volume of 25 μl for 60 minutes at 30° C. The reaction was stopped by adding 5 μl of 3% phosphoric acid solution. Total reaction solution was then harvested onto a filter plate (UniFilter-96 GF/B, PerkinElmer), and washed 20 times for 5 min with dH2O. 30 μl of MicroScint™-20 Cocktail (PerkinElmer) was added to dried plate. The plate was sealed and counted using a TopCount scintillation detector (PerkinElmer). […] The IC50 values of quinoxaline compounds of this invention against FLT3 kinase were determined using the GraphPad Prism 5 software.
(§2) The IC50 values for selected quinoxaline compounds of this invention against CSF-1R, c-KIT, FLT3, and PDGFRβ are summarized in Table 3.

Another experiment concerns the target CSF-1R kinase (Homo sapiens (Human), UniProt P07333). As to the kind of experiment: CSF-1R kinase assay (AlphaScreen). In kind it is biochemical. As to the method: Inhibition of CSF-1R kinase activity by a test compound disclosed herein was estimated by AlphaScreen (PerkinElmer). […] Reactions were incubated at 30° C. for 45 min and stopped by adding 5 μL of 50 mM EDTA. Analysis of resulting product using an AlphaScreen kit, and counted with Enspire Alpha (PerkinElmer). […] The IC50 values of quinoxaline compounds of this invention against CSF-1R kinase were determined using the GraphPad Prism 5 software.
In general terms: In Alpha technology, singlet oxygen from a donor bead excites a nearby acceptor bead.

For experiment [1], the system named is Kasumi-1 human acute myeloid leukemia cell with c-KIT N822K activating mutation. As to the kind of experiment: Kasumi-1 cell proliferation assay (CellTiter-96). In kind it is cell-based. Conditions: Cytotoxicity, Kasumi-1 cells, 72 hours. As to the method:
(§3) Inhibition of cell growth by compounds was measured using CellTiter™-96 assay. The cytotoxicity of compounds was evaluated in CSF-1-dependent M-NFS-60 mouse myeloid leukemia cell, FLT3 signal addicted MV4-11 human acute myeloid leukemia cell with FLT3-ITD mutation, c-KIT signal addicted Kasumi-1 human acute myeloid leukemia cell with c-KIT N822K activating mutation, and THP-1 human acute monocytic leukemia cell harboring NRAS G12D mutation.
The compounds disclosed herein were tested in Kasumi cell proliferation assay to determine their cellular potency against c-KIT kinase. Kasumi human acute myeloid leukemia cells harbor ligand-independent N822K c-KIT activating mutation, thus the cell proliferation relied on c-KIT signal. Inhibition of c-KIT kinase activity will cause reduced growth and/or cell death. […] Cells were allowed to expand until reaching saturation at which point they were subcultured or harvested for assay use.
(§4) M-NFS-60, Kasumi-1, MV4-11 and THP-1 cells were seeded into 96-well plates at 2000, 64000, 6500, and 5000 cells/well, respectively, and incubated at 37° C., 5% CO2 overnight. Then, these seeded cells were treated with increasing concentrations of the test compounds and incubated for another 72 hours. At the end of the incubation, CellTiter96® AQueous One Solution Reagent (Promega) was added and incubated for 4 hours. Cell viability was determined by measuring absorbance at 490 nm using EMax® microplate reader (Molecular Devices).

A further experiment deals with c-KIT kinase (Homo sapiens (Human), UniProt P10721). Description: c-KIT kinase assay (radiometric). In kind it is biochemical. As to the method: as §1, with “of c-KIT” for “of FLT3”, “were 20” for “were 5”, “recombinant c-Kit (SignalChem)” for “recombinant FLT3 (Thermo Fisher)”, “BSA,” for “BSA, MgCl2”, “10 mM MgCl2, 10 mM MnCl2,” for “10 mM,”, “against c-KIT” for “against FLT3”
c-KIT kinase, sequence (P10721 26-976): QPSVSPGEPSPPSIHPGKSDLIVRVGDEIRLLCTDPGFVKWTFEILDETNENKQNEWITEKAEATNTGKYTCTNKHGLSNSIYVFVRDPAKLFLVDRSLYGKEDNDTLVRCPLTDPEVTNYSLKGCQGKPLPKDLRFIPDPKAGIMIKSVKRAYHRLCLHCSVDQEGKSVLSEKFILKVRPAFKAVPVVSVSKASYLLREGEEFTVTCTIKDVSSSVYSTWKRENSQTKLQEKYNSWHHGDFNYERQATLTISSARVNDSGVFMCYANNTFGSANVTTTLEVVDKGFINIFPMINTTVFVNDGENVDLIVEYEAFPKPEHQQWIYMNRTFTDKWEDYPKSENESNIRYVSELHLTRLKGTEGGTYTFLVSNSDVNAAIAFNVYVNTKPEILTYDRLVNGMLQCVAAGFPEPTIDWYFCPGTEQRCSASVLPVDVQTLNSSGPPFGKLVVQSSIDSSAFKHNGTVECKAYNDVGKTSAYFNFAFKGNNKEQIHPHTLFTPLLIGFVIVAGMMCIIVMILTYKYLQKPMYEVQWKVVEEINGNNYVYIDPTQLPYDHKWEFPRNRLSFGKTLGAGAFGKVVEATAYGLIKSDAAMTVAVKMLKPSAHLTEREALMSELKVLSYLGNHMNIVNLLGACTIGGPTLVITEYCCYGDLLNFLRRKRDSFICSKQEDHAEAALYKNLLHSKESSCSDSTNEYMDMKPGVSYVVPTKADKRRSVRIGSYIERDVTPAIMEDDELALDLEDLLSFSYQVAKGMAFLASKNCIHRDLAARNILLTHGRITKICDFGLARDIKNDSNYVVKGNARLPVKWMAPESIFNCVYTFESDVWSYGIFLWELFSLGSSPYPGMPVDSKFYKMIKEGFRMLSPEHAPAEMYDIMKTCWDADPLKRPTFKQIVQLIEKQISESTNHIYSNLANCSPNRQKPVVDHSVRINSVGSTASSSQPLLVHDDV
as §2

For experiment [2], the system named is CSF-1-dependent M-NFS-60 mouse myeloid leukemia cell. Description: M-NFS-60 cell proliferation assay (CellTiter-96). In kind it is cell-based. The note with it: Cytotoxicity, M-NFS-60 cells, 72 hours. The protocol: as §3
The compounds disclosed herein were tested in M-NFS-60 cell proliferation assay to determine their cellular potency against CSF-1R. […] Inhibition of CSF-1R kinase activity will cause reduced growth and/or cell death. […] Cells were allowed to expand until reaching saturation at which point they were subcultured or harvested for assay use.
as §4

Experiment [3] concerns MV4-11 human acute myeloid leukemia cell with FLT3-ITD mutation. As to the kind of experiment: MV4-11 cell proliferation assay (CellTiter-96). In kind it is cell-based. The note with it: Cytotoxicity, MV4-11 cells, 72 hours. The protocol: as §3
The compounds disclosed herein were tested in MV4-11 cell proliferation assay to determine their cellular potency against FLT3 kinase. MV4-11 human acute myeloid leukemia cells harbor ligand-independent FLT3-ITD activating mutation, which render its proliferation FLT3-ITD dependent. Inhibition of FLT3 kinase activity will cause reduced growth and/or cell death. […] Cells were allowed to expand until reaching saturation at which point they were subcultured or harvested for assay use.
as §4

Experiment [4] has as its system THP-1 human acute monocytic leukemia cell harboring NRAS G12D mutation. Description: THP-1 cell proliferation assay (counter screen, CellTiter-96). Conditions: Cytotoxicity, THP-1 cells (counter screen), 72 hours. In kind it is cell-based. The protocol:
as §3
THP-1 human acute monocytic leukemia cells harbor NRAS G12D mutation, which renders cell proliferate independently of class III RTKs signal. […] Cells were allowed to expand until reaching saturation at which point they were subcultured or harvested for assay use.
as §4
Background: Counterscreens check selectivity or assay interference.

The next experiment concerns the target PDGFRβ kinase (Homo sapiens (Human), UniProt P09619). As to the kind of experiment: PDGFRβ kinase assay (radiometric). In kind it is biochemical. Conditions: bound. The protocol:
Inhibition of PDGFRβ kinase activity by a test compound disclosed herein was estimated by radiometric assay. Standard assay conditions were 10 ng of recombinant PDGFRβ (SignalChem) with 2 μg of substrate Poly-(Glu 4:Tyr 1) (sigma) in the assay buffer in kinase reaction buffer (10 mM MOPS pH 7.0, 0.21 mM EDTA, 0.5% glycerol, 0.001% Brij-35, 0.01 2-mercaptoehtanol, 1 mg/ml BSA, 10 mM MgCl2, 10 mM MnCl2, 10 μM ATP, 0.1 μCi per well [^33P]-ATP), in the presence of test compound (diluted in final concentration of 4% DMSO) or DMSO control, with a final volume of 25 μl for 60 minutes at 30° C. The reaction was stopped by adding 5 μl of 3% phosphoric acid solution. Total reaction solution was then harvested onto a filter plate (UniFilter-96 GF/B, PerkinElmer), and washed 20 times for 5 min with dH2O. 30 μl of MicroScint™-20 Cocktail (PerkinElmer) was added to dried plate. The plate was sealed and counted using a TopCount scintillation detector (PerkinElmer). […] The IC50 values of quinoxaline compounds of this invention against PDGFRβ kinase were determined using the GraphPad Prism 5 software.
as §2

Some results are limits rather than exact numbers.

As a reminder, the IC50 is the concentration at which inhibition is half-maximal. The low end stands for greater potency, the high end for weaker potency.

FLT3 kinase, sequence (P36888 27-993): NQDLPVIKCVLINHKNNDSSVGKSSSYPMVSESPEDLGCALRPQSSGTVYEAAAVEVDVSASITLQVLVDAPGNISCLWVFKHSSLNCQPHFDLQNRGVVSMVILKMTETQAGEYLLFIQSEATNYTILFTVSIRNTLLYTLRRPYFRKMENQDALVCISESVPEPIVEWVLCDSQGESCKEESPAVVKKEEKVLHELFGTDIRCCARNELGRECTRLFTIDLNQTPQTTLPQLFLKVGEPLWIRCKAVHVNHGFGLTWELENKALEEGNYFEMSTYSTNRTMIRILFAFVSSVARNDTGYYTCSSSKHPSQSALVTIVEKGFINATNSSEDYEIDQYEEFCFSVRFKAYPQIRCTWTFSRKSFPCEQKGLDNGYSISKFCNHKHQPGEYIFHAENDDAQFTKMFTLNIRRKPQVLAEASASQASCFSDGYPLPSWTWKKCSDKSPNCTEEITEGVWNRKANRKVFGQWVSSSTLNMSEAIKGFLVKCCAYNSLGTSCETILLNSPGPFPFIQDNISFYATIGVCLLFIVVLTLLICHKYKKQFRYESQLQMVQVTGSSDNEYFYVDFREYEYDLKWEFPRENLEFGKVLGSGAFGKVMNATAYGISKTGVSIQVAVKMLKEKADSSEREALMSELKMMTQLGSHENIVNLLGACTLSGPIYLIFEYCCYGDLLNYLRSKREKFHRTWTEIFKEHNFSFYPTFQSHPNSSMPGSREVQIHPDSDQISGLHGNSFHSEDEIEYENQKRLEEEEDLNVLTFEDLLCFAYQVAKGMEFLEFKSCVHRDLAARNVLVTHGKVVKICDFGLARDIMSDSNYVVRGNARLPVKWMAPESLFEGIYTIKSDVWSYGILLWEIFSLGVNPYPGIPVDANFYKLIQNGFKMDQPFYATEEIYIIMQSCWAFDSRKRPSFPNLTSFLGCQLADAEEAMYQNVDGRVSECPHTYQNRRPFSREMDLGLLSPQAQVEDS
CSF-1R kinase, sequence (P07333 20-972): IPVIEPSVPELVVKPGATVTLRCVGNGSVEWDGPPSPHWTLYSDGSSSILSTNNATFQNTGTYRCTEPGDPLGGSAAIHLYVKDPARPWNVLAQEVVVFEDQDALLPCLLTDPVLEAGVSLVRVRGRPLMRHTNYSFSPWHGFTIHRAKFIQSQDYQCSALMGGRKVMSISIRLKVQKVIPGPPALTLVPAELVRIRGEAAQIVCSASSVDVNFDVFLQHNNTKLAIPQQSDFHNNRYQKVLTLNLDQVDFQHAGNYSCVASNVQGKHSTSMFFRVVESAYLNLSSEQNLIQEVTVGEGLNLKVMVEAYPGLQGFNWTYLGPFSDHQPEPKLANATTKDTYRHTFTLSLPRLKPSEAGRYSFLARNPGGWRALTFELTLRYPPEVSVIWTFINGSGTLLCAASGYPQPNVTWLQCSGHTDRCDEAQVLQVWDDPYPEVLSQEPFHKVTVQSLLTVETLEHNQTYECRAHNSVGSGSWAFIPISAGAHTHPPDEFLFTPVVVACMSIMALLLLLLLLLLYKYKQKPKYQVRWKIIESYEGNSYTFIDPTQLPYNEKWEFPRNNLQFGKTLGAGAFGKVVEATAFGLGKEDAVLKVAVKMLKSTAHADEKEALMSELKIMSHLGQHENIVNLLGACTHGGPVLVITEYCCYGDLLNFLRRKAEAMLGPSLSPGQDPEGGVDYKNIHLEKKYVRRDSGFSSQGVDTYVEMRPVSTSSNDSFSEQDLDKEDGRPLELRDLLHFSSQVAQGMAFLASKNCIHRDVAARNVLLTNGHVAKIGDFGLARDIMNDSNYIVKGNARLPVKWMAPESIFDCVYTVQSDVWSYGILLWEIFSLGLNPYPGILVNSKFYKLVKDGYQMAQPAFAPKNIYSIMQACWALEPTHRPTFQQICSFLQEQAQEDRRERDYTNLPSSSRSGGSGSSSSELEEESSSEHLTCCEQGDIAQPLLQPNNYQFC
PDGFRβ kinase, sequence (P09619 33-1106): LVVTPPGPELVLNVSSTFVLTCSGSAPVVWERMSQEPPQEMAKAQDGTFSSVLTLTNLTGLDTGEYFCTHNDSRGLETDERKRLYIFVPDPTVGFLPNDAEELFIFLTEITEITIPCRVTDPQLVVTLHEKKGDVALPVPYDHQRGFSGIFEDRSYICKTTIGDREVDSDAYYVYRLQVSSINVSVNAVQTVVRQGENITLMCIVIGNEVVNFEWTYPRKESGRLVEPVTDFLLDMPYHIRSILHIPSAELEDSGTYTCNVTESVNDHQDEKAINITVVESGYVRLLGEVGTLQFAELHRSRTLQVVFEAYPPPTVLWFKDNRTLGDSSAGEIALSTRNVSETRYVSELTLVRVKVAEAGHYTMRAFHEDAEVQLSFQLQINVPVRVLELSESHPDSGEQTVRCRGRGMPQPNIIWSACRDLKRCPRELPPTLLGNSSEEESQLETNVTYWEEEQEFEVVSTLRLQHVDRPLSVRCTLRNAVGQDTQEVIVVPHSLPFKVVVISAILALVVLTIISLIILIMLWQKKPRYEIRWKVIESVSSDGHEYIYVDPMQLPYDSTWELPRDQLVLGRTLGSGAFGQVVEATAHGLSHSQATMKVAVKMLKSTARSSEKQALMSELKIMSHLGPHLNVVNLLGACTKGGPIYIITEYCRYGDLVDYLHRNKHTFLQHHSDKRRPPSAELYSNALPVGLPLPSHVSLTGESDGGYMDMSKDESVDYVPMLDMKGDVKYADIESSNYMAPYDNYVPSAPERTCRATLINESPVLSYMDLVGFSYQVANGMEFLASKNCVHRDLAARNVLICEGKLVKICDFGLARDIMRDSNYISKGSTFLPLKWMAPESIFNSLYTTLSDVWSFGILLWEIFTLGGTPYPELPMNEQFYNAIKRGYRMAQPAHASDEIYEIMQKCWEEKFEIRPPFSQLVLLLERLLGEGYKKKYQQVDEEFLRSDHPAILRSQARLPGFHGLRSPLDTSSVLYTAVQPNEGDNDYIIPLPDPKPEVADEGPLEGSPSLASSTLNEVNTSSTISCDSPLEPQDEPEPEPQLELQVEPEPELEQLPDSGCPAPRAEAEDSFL

In the case of `COc1cc(Nc2ccc3ncc(N4CCOCC4)nc3c2C#N)ccc1OCC1CC1` [Example 36, 6-((4-(cyclopropylmethoxy)-3-methoxyphenyl)amino)-3-morpholinoquinoxaline-5-carbonitrile], the IC50 was greater than 1 µM against FLT3 kinase; 0.3 to 1 µM on CSF-1R kinase (class symbol); 0.3 to 1 µM in experiment [1]; 0.1 to 0.3 µM on c-KIT kinase (class symbol); greater than 10 µM in experiment [2]; 1 to 10 µM in experiment [3]. Besides, the IC50 in experiment [4] was greater than 10 µM; against PDGFRβ kinase it was greater than 1 µM.
For `COc1ccc(CNc2ccc(Nc3ccc4ncc(N5CCOCC5)nc4c3C#N)cc2OC)cc1` [Example 39, 6-((3-methoxy-4-((4-methoxybenzyl)amino)phenyl)amino)-3-morpholinoquinoxaline-5-carbonitrile], the IC50 was greater than 1 µM on FLT3 kinase; greater than 1 µM at CSF-1R kinase (bound); 0.3 to 1 µM in experiment [1]; 0.1 to 0.3 µM on c-KIT kinase (class symbol); greater than 10 µM in experiment [2]; 1 to 10 µM in experiment [3]. The values for the IC50 (in experiment [4]; on PDGFRβ kinase) were greater than 10 µM and greater than 1 µM, respectively.
As for `COc1cc(Nc2ccc3ncc(N4CCOCC4)nc3c2C#N)ccc1OCc1ccncc1` [Example 46, 6-((3-methoxy-4-(pyridin-4-ylmethoxy)phenyl)amino)-3-morpholinoquinoxaline-5-carbonitrile], the IC50 against FLT3 kinase was greater than 1 µM; at CSF-1R kinase (class symbol) it was 0.3 to 1 µM; in experiment [1], 1 to 10 µM; against c-KIT kinase (class symbol) it was 0.1 to 0.3 µM; in experiment [2], 1 to 10 µM; in experiment [3], 1 to 10 µM. Moreover, the half-inhibitory concentration (IC50) in experiment [4] is greater than 10 µM; on PDGFRβ kinase it was greater than 1 µM.
Regarding `COc1cc(Nc2ccc3ncc(N4CCOCC4)nc3c2C#N)ccc1OCc1nccn1C` [Example 48, 6-((3-methoxy-4-((1-methyl-1H-imidazol-2-yl)methoxy)phenyl)amino)-3-morpholinoquinoxaline-5-carbonitrile], the concentration for half-maximal inhibition (IC50) was greater than 1 µM at FLT3 kinase; greater than 1 µM against CSF-1R kinase (bound); 1 to 10 µM in experiment [1]; 0.3 to 1 µM against c-KIT kinase (class symbol); greater than 10 µM in experiment [2]; greater than 10 µM in experiment [3]. For the same compound, the IC50 in experiment [4] was greater than 10 µM; at PDGFRβ kinase it was greater than 1 µM.
With `COc1cc(Nc2ccc3ncc(N4CCOCC4)nc3c2C#N)ccc1OCc1cnccn1` [Example 51, 6-((3-methoxy-4-(pyrazin-2-ylmethoxy)phenyl)amino)-3-morpholinoquinoxaline-5-carbonitrile], the IC50 on FLT3 kinase is greater than 1 µM; against CSF-1R kinase (bound), greater than 1 µM; in experiment [1] it was 0.3 to 1 µM; at c-KIT kinase (class symbol), less than 0.1 µM; in experiment [2], greater than 10 µM; in experiment [3], greater than 10 µM. Also, the figures for the IC50 (in experiment [4]; against PDGFRβ kinase) were greater than 10 µM and greater than 1 µM, respectively.
Turning to `COc1cc(Nc2ccc3ncc(N4CCOCC4)nc3c2C#N)ccc1OCc1cc(C)on1` [Example 61, 6-((3-methoxy-4-((5-methylisoxazol-3-yl)methoxy)phenyl)amino)-3-morpholinoquinoxaline-5-carbonitrile], the concentration for half-maximal inhibition (IC50) was greater than 1 µM against FLT3 kinase; less than 0.1 µM at CSF-1R kinase (class symbol); 0.3 to 1 µM in experiment [1]; less than 0.1 µM against c-KIT kinase (class symbol); greater than 10 µM in experiment [2]; greater than 10 µM in experiment [3]. Further, the half-maximal inhibitory concentration (IC50) in experiment [4] is greater than 10 µM; at PDGFRβ kinase it was greater than 1 µM.
Consider `COc1ccc(COc2ccc(Nc3ccc4ncc(N5CCOCC5)nc4c3C#N)cc2Cl)cc1` [Example 63, 6-((3-chloro-4-((4-methoxybenzyl)oxy)phenyl)amino)-3-morpholinoquinoxaline-5-carbonitrile], for which the half-inhibitory concentration (IC50) against FLT3 kinase was greater than 1 µM; at CSF-1R kinase (class symbol), less than 0.1 µM; in experiment [1], greater than 10 µM; against c-KIT kinase (bound), greater than 1 µM; in experiment [2], 1 to 10 µM; in experiment [3] it was greater than 10 µM. In addition, the IC50 in experiment [4] is greater than 10 µM; at PDGFRβ kinase, greater than 1 µM.
For `C#CCOc1ccc(Nc2ccc3ncc(N4CCOCC4)nc3c2C#N)cc1OC` [Example 92, 6-((3-methoxy-4-(prop-2-yn-1-yloxy)phenyl)amino)-3-morpholinoquinoxaline-5-carbonitrile], the IC50 on FLT3 kinase is greater than 1 µM; at CSF-1R kinase (class symbol), 0.3 to 1 µM; in experiment [1], 0.3 to 1 µM; at c-KIT kinase (class symbol) it was 0.1 to 0.3 µM; in experiment [2], 1 to 10 µM; in experiment [3], 1 to 10 µM. In addition, the figures for the IC50 (in experiment [4]; against PDGFRβ kinase) were greater than 10 µM and greater than 1 µM, respectively.
Take `COc1cc(Nc2ccc3ncc(N4CCOCC4)nc3c2C#N)ccc1OCc1ccc(N(C)C)nc1` [Example 104, 6-((4-((6-(dimethylamino)pyridin-3-yl)methoxy)-3-methoxyphenyl)amino)-3-morpholinoquinoxaline-5-carbonitrile]: the IC50 was greater than 1 µM at FLT3 kinase; less than 0.1 µM against CSF-1R kinase (class symbol); 1 to 10 µM in experiment [1]; less than 0.1 µM at c-KIT kinase (class symbol); 1 to 10 µM in experiment [2]; 1 to 10 µM in experiment [3]. For the same compound, the IC50 is greater than 10 µM in experiment [4] and greater than 1 µM on PDGFRβ kinase.

The values are drawn from patent US10689362B2, “Quinoxaline compounds as type III receptor tyrosine kinase inhibitors” (Development Center for Biotechnology, priority 2016, dated 2020).
